Assay results reported in the supplement of paper PMC8671470.

Tests used:
Settings in all cases: 72 h
[1] = tested on: BV-173
Procedure, shortened: (§1)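 Each of fifteen myeloid leukaemia cell lines was seeded in RPMI 1640 at a density titrated to its linear growth range. The cells were incubated for 72 h at 37 °C and 5% CO2 with compounds at five tenfold doses from 1 to 10,000 nM, in duplicate. After ATP luminescence was normalised to vehicle and to a positive control at 10 µM, four-parameter log-logistic curves were fitted. These curves gave the IC50.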

[2] = tested on: HEL
Procedure, shortened: as §1

[3] = tested on: HL-60
Procedure, shortened: as §1

[4] = tested on: K-562
Procedure, shortened: as §1

[5] = tested on: KCL-22
Procedure, shortened: as §1

[6] = tested on: KG-1
Procedure, shortened: as §1

[7] = tested on: KU-812
Procedure, shortened: as §1

[8] = tested on: LAMA-84
Procedure, shortened: as §1

[9] = tested on: ML-2
Procedure, shortened: as §1

[10] = tested on: MOLM-13
Procedure, shortened: as §1

[11] = tested on: MV4-11
Procedure, shortened: as §1

[12] = tested on: Mono-Mac-6
Procedure, shortened: as §1

[13] = tested on: NOMO-1
Procedure, shortened: as §1

[14] = tested on: SHI-1
Procedure, shortened: as §1

[15] = tested on: THP-1
Procedure, shortened: as §1

[16] = tested on: BV-173; assay: cell viability (% survival relative to DMSO control, bortezomib = 0%); higher = less cytotoxic
Procedure, shortened: (§2)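 In 384-well plates pre-printed with compounds at 1, 10, 100, 1000 or 10000 nM, duplicate wells received cells from 10 AML and 5 CML lines at densities within the linear growth range. The plates stayed at 37 °C with 5% CO2 for 72 h before CellTiter-Glo luminescence was recorded. Each entry is averaged percent survival. Scaling placed vehicle at 100% and a 10 µM positive control at 0%.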

[17] = tested on: HEL; assay: as above
Procedure, shortened: as §2

[18] = tested on: HL-60; assay: as above
Procedure, shortened: as §2

[19] = tested on: K-562; assay: as above
Procedure, shortened: as §2

[20] = tested on: KCL-22; assay: as above
Procedure, shortened: as §2

[21] = tested on: KG-1; assay: as above
Procedure, shortened: as §2

[22] = tested on: KU-812; assay: as above
Procedure, shortened: as §2

[23] = tested on: LAMA-84; assay: as above
Procedure, shortened: as §2

[24] = tested on: ML-2; assay: as above
Procedure, shortened: as §2

[25] = tested on: MOLM-13; assay: as above
Procedure, shortened: as §2

[26] = tested on: MV4-11; assay: as above
Procedure, shortened: as §2

[27] = tested on: Mono-Mac-6; assay: as above
Procedure, shortened: as §2

[28] = tested on: NOMO-1; assay: as above
Procedure, shortened: as §2

[29] = tested on: SHI-1; assay: as above
Procedure, shortened: as §2

[30] = tested on: THP-1; assay: as above
Procedure, shortened: as §2

N[C@@H](CCC(=O)N[C@@H](CS)C(=O)NCC(=O)O)C(=O)O [Glutathione]
Settings	IC50 (cell viability)
[1]	> 10000 nM
[2]	> 10 µM
[3]	> 10 µM
[4]	> 10 µM
[5]	> 10000 nM
[6]	> 10 µM
[7]	> 10 µM
[8]	> 10 µM
[9]	> 10 µM
[10]	> 10 µM
[11]	> 10000 nM
[12]	> 10 µM
[13]	> 10 µM
[14]	> 10 µM
[15]	> 10 µM

cell viability [%]
Settings	1 nM	10 nM	100 nM	1000 nM	10000 nM
[16]	102	99.4	94.4	101	91.9
[17]	106	95.7	96.1	94.2	111
[18]	77.8	94.8	98.7	70.5	105
[19]	94.4	106	92.2	93.6	98.7
[20]	101	110	91.4	95.6	107
[21]	106	101	111	95.7	110
[22]	105	110	108	96	96.5
[23]	100	98.1	97.6	98.1	104
[24]	93.2	106	103	93	104
[25]	111	114	91.4	92.5	92.1
[26]	106	99.2	107	80.9	106
[27]	96.2	89.5	84.9	103	89.9
[28]	98.9	105	91.1	94.2	106
[29]	99.3	106	106	97.5	95.3
[30]	100	102	95.4	105	105

Clc1cc(Cl)c(OCC#CI)cc1Cl [Haloprogin]
Settings	IC50 (cell viability)
[1]	1580 nM
[2]	3.48 µM
[3]	> 10 µM
[4]	5.06 µM
[5]	1710 nM
[6]	3.26 µM
[7]	2.03 µM
[8]	5.49 µM
[9]	3.25 µM
[10]	3.95 µM
[11]	2520 nM
[12]	2.84 µM
[13]	3.09 µM
[14]	> 10 µM
[15]	1.69 µM

cell viability [%]
Settings	1 nM	10 nM	100 nM	1000 nM	10000 nM
[16]	120	93	104	71.5	0.185
[17]	103	101	106	106	0.615
[18]	92.2	109	108	109	51.4
[19]	93.8	91.4	92.6	95.6	18.1
[20]	95.9	97.1	104	73.9	2.51
[21]	108	101	101	101	0.829
[22]	104	95	107	80.6	2.77
[23]	94.4	94.6	99.9	101	21.7
[24]	106	108	113	102	-0.066
[25]	100	113	112	108	6.57
[26]	109	98	101	89	0.356
[27]	103	95.7	98.8	94.1	0.149
[28]	109	103	109	98.2	0.243
[29]	97.8	112	107	99.5	62.6
[30]	101	97.4	100	74	0.288

O=c1[nH]c(=O)n([C@H]2C[C@H](O)[C@@H](CO)O2)cc1I [Idoxuridine]
Settings	IC50 (cell viability)
[1]	464 nM
[2]	1.47 µM
[3]	> 10 µM
[4]	4.34 µM
[5]	755 nM
[6]	> 10 µM
[7]	> 10 µM
[8]	5.59 µM
[9]	2.51 µM
[10]	4.76 µM
[11]	1630 nM
[12]	6.63 µM
[13]	> 10 µM
[14]	> 10 µM
[15]	> 10 µM

cell viability [%]
Settings	1 nM	10 nM	100 nM	1000 nM	10000 nM
[16]	102	86.7	97.6	15.6	1.22
[17]	93.8	90.5	92	59.7	36.1
[18]	113	105	102	95	84
[19]	85.6	102	99.3	73.3	47.1
[20]	103	96.7	101	48.9	26.3
[21]	101	108	105	84.1	63.3
[22]	92.9	95.9	102	88.6	66.5
[23]	102	88.8	103	87	47.1
[24]	98.1	92.4	105	83.4	28.2
[25]	116	91.2	94.1	83.5	32.1
[26]	103	89.2	92.6	63.6	21.7
[27]	96	91.4	93.5	76	52.1
[28]	102	92.2	97.8	95.3	84.8
[29]	102	99.6	99.3	95.2	60.3
[30]	95.4	100	99.6	104	90
